“And” between values parts separate entries of the source, which are not always exact repeats. Identical values can stand only once. Like-named read-outs stand apart in the source and are kept apart here.
Tests used:
[1] = system: IL-1β-stimulated PGE2 synthesis in bovine chondrocyte pellets / ARC tissues; assay: Chondrocyte pellet / ARC culture model: Prostaglandin E2 assay; format: cell-based; details: for PGE2 synthesis (in words): diacerein at 5.4 μM, rhein at 0.35 μM, 10 ng/ml IL-1β; for effect on IL-1β-stimulated PGE2 synthesis (in words): chondrocyte pellet / ARC model; for maximum inhibition of PGE2: bovine ARC tissues, IL-1β
Description: (§1) Calf articular cartilage was obtained from the knee joints of eight to twelve month old animals and was processed within twenty-four hours after sacrifice. After removal of muscle and ligament, the cartilage was kept moist using phosphate buffer solution (PBS) to prevent tissue dehydration, and was aseptically peeled off from subchondral bone with a scalpel, and the cartilage pieces were further minced into smaller pieces (˜0.3-0.5×˜0.2-0.5 cm cubes). […] Chondrocytes were then enzymatically isolated from the tissue by incubation for overnight at 37° C. with gentle agitation in 0.2% collagenase in Dulbecco's modified eagle media (DMEM). After removal of tissue debris by filtration through cell strainer and the residual collagenase by 3× wash in PBS, cells were finally resuspended at a density of 2.5×10^6 cells/ml in chondrocyte medium. A 1 ml aliquot of the cell suspension was dispensed into either a 15 ml Falcon centrifuge tube or a 96 deep-well plate and centrifuged at 2000×g for five minutes. The chondrocyte pellets were incubated at 37° C. in a humidified atmosphere of 5% CO2 for two to three weeks with a medium change every other day.
(§2) As an alternative to using calf articular cartilage, a commercial Aliginate Recovered Chondrocytes (ARC) system was also used (Articular Engineering, LLC (Northbrook, Ill.)). Use of the commercial system cut down on labor and time in producing chondrocyte pellet. This system produced cartilaginous tissue in vitro using bovine chondrocytes. The first step consisted of culturing chondrocytes in alginate under conditions optimal for the formation of a cell-associated matrix (CM). The second step allowed these cells with their CM, after recovery, to rapidly form and become integrated into a solid mass of cartilage on a porous insert within two weeks.
(§3) Chondrocyte pellets were washed once with 1 ml of Chondrocyte Stimulation Medium and equilibrated in the same medium at room temperature for fifteen to thirty minutes. Compounds were dissolved in H2O, Ethanol or dimethyl sulfoxide (DMSO) (10^−2 M) according to suppliers' instructions and further diluted with Chondrocyte Stimulation Medium to the required concentrations. DMSO concentrations in the culture media should not exceed 1%; this concentration of DMSO has no effect on cartilage proteoglycan metabolism in response to cytokines.
(§4) The pellets were first treated with compounds at desired concentrations at 37° C. for one hour and then incubated for three to five days in the absence or presence of 10 ng/ml of IL-1β. At the end of the incubation, media and pellets were harvested and frozen for further analysis. Pellets were also fixed as needed in 4% (w/v) paraformaldehyde in PBS for histology analysis.
Prostaglandin E2 (PGE2) was measured with a STAT-Prostaglandin E2 EIA ELISA kit (Cayman Biochemicals). This assay is based on the competition between PGE2 from 50 μl samples and a PGE2-alkaline phosphatase conjugate for a limited amount of PGE2 monoclonal antibody in a reaction volume of 150 μl at room temperature for one hour. The antibody-PGE2 complex bound to a goat polyclonal anti-mouse IgG that had been previously attached to the well. After washing to remove any unbound reagents, para-nitrophenyl phosphate (pNPP) was added to the well. The product of this enzymatic reaction absorbs strongly at 412 nm. Because of the large range in response to IL-1β and other cytokines, PGE2 values were converted to log scale prior to doing t-tests.
To characterize the relative efficacies among different p38 MAP kinase inhibitors, dose-response curves were generated for both PGE2 and NO assays. […] After one hour of treatment, ARCs were stimulated with or without 7.5 ng/ml IL-1β and continued to incubate for five days before assay. The IL-1β-stimulated PGE2 synthesis or NO production was first calculated by subtraction of PGE2/NO levels in the absence of IL-1β from that in the presence of IL-1β. […]

[2] = system: IL-1β-stimulated NO production in bovine chondrocyte pellets / ARC tissues; assay: Chondrocyte pellet / ARC culture model: total nitrite and nitrate assay; format: cell-based; details: for effect on IL-1β-stimulated NO production (in words): chondrocyte pellet / ARC model
Description: as §1, §2, §3, §4
Nitrate/Nitrite levels were measured using the Griess reaction (Green L. C. et al., “Analysis of Nitrate, Nitrite, and [15N]nitrate in Biological Fluids,” Anal. Biochem. 126: 131-138 (1982)) with a Nitrate/Nitrite Colorimetric Assay Kit (Cayman Chemicals), the contents of which are incorporated herein by reference. The assay involved a simple two-step process. The first step involved conversion of nitrate in 50 μl of culture medium to nitrite utilizing nitrate reductase in a reaction volume of 100 μl at room temperature for two hours. The second step involved the addition of 50 μl of both Griess Reagent 1 and 2, which converted nitrite into a deep purple azo compound in ten minutes. Photometric measurement of the absorbance at 540 or 550 nm due to this azo chromophore accurately determined nitrite concentration. This assay kit cannot be used for RPMI (Roswell Park Memorial Institute) derived tissue culture medium due to interference with the colorimetric reaction.
To characterize the relative efficacies among different p38 MAP kinase inhibitors, dose-response curves were generated for both PGE2 and NO assays. […] After one hour of treatment, ARCs were stimulated with or without 7.5 ng/ml IL-1β and continued to incubate for five days before assay. […]

chondrocytes = format: cell-based
Description: The LDH activity was determined calorimetrically in an enzymatic test based on the conversion of lactic acid to pyruvate in the presence of chromagenic substrate tetrazolium salt INT that was reduced to formazan.

p38α MAP kinase (h-p38α) = p38α MAP kinase (h-p38α) (Homo sapiens, UniProt Q16539); assay: p38α MAP kinase inhibition (direct enzyme assay); format: biochemical; details: read-out: inhibitor of p38a MAP kinase, IC50
p38α MAP kinase (h-p38α), sequence (Q16539 whole entry): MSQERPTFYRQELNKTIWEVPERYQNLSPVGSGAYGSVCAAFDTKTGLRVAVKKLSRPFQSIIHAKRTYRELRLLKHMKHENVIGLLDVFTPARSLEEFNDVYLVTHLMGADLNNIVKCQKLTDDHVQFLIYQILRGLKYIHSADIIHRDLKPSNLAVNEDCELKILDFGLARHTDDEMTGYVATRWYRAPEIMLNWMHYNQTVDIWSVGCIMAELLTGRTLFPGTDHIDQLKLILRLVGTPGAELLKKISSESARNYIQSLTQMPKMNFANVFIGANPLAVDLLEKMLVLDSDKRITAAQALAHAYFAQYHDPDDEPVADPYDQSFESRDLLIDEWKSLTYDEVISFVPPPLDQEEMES

COX2 = biological target: T1, COX2 (Homo sapiens, UniProt P35354); assay: COX2 inhibition; format: biochemical; details: read-out: inhibitor of COX2, IC50
T1 sequence (P35354 18-604): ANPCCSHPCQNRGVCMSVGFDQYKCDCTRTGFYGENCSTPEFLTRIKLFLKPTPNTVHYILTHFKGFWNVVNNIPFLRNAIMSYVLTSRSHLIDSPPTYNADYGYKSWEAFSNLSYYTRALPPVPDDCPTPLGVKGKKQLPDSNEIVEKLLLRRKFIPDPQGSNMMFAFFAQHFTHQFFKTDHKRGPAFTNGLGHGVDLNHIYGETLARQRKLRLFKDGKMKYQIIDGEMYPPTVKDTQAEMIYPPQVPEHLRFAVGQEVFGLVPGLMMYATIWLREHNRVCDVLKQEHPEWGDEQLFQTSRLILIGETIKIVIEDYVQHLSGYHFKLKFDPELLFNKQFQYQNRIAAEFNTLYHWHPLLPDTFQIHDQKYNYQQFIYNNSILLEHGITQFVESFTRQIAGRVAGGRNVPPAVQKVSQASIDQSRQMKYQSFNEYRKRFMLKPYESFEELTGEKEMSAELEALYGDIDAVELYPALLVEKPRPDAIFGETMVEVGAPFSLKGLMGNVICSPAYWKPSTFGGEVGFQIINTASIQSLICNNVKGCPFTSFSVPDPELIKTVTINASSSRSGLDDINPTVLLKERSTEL

Water solubility = format: physicochemical
[3] = Bos taurus, Chondrocyte, 120 h, bovine ARCs, 7.5 ng/ml IL-1β, five days, sigmoidal dose-response fit, read-out: PGE2, IC50
[4] = Bos taurus, Chondrocyte, Table 3B, read-out: PGE2 Inhibition, Pellet Assay, IC50
[5] = Bos taurus, Chondrocyte, 120 h, bovine ARCs, 7.5 ng/ml IL-1β, five days, sigmoidal dose-response fit, read-out: NO, IC50
[6] = chondrocyte pellet / ARC model, within the tested concentrations
[7] = Bos taurus, Chondrocyte, at 0.5 μM
[8] = bovine ARCs, 7.5 ng/ml IL-1β, five days, sigmoidal dose-response fit, read-out: PGE2, IC50
[9] = bovine ARCs, 7.5 ng/ml IL-1β, five days, sigmoidal dose-response fit, read-out: NO, IC50

CC(=O)Oc1cccc2c1C(=O)c1c(OC(C)=O)cc(C(=O)O)cc1C2=O [Diacerein, reference compound]
PGE2 synthesis (in words) ([1]; five days): no effect
NO production (in words) ([2]; diacerein at 5.4 μM, rhein at 0.35 μM, 10 ng/ml IL-1β, five days): significantly inhibited
cytotoxicity to chondrocytes, LDH (in words) (chondrocytes): cytotoxicity at higher concentrations

OCCC#Cc1nc(-c2ccc(F)cc2)c(-c2ccncc2)n1CCCc1ccccc1 [JNJ 3026582 (RWJ 67657), 4-[4-(4-fluorophenyl)-1-(3-phenylpropyl)-5-(4-pyridinyl)-1H-imidazol-2-yl]-3-butyn-1-ol]
IC50 [1, 3]: 421 nM
IC50 [1, 4]: 421 nM
effect on IL-1β-stimulated PGE2 synthesis (in words) [1]: inhibited
IC50 [2, 5]: 119 nM
IC50 ([2]; Bos taurus, Chondrocyte, Table 3B, read-out: NO Inhibition, Pellet Assay, IC50): 119 nM
effect on IL-1β-stimulated NO production (in words) [2]: inhibited
cytotoxicity to chondrocytes, LDH (in words) (chondrocytes; [6]): little cytoxicity
IC50 (p38α MAP kinase (h-p38α)): 20 nM
IC50 (COX2): > 10 µM
pH at which soluble (Water solubility): < 2
water solubility (in words) (Water solubility): poor water solubility
solubility in 0.1 M HCl (in words) (Water solubility; 0.1 M HCl): soluble in 0.1 M HCl

C[C@H](Nc1nccc(-c2c(-c3ccc(F)cc3)nc3nc(N)ccn23)n1)c1ccccc1 [JNJ 7583979 (RWJ 351958)]
inhibition at 0.5 µM [1, 7]: 100%
effect on IL-1β-stimulated PGE2 synthesis (in words) [1]: significantly inhibited
inhibition at 0.5 µM [2, 7]: 50%
effect on IL-1β-stimulated NO production (in words) [2]: significantly inhibited
cytotoxicity to chondrocytes, LDH (in words) (chondrocytes; [6]): little cytoxicity
IC50 (p38α MAP kinase (h-p38α)): 1 nM
IC50 (COX2): > 10 µM
water solubility (in words) (Water solubility): poor water solubility
solubility (Water solubility; water (aqueous, simulated gastric fluid), at pH 2, read-out: solubility): > 1000 µg/mL

CC(=O)N1CCN(c2c(-c3ccncc3)c(-c3ccc(F)cc3)c(C#N)n2C)CC1 [JNJ 17089540 (RWJ 669307)]
IC50 ([1]; Table 3B, read-out: PGE2 Inhibition, Pellet Assay, IC50): 29600 nM
IC50 [1, 8]: 29600 nM
IC50 ([2]; Table 3B, read-out: NO Inhibition, Pellet Assay, IC50): 4900 nM
IC50 [2, 9]: 4920 nM
effect on IL-1β-stimulated NO production (in words) [2]: weaker inhibitor
cytotoxicity to chondrocytes, LDH (in words) (chondrocytes): little cytoxicity
IC50 (p38α MAP kinase (h-p38α)): 2000 nM
IC50 (COX2): > 10 µM
water solubility (Water solubility; of HCl salt): > 100 mg/mL

CO[C@H]1C[C@@H]2CC[C@@H](C)[C@@](O)(O2)C(=O)C(=O)N2CCCC[C@H]2C(=O)O[C@H]([C@H](C)C[C@@H]2CC[C@@H](O)[C@H](OC)C2)CC(=O)[C@H](C)/C=C(\C)[C@@H](O)[C@@H](OC)C(=O)[C@H](C)C[C@H](C)/C=C/C=C/C=C/1C [Rapamycin, reference compound]
inhibition at 10 µM ([1]; Bos taurus, Chondrocyte, at 10 μM): 47%
inhibition at 10 µM ([2]; Bos taurus, Chondrocyte): 30%
cytotoxicity to chondrocytes, LDH (in words) (chondrocytes): little toxicity

O=C(O)c1cc(O)c2c(c1)C(=O)c1cccc(O)c1C2=O [Rhein, reference compound]
PGE2 synthesis (in words) ([1]; five days): no effect
cytotoxicity to chondrocytes, LDH (in words) (chondrocytes): higher toxicity

C[C@@H]1CN(Cc2ccc(F)cc2)[C@@H](C)CN1C(=O)c1cc2cc(C(=O)C(=O)N(C)C)[nH]c2cc1Cl [SCIO-282 (SD 282)]
maximum inhibition of PGE2 [1]: 96%
IC50 [1, 8]: 583 nM and 582 nM
effect on IL-1β-stimulated PGE2 synthesis (in words) [1]: inhibited
IC50 [2, 9]: 74 nM and 74.4 nM
effect on IL-1β-stimulated NO production (in words) [2]: inhibited
cytotoxicity to chondrocytes, LDH (in words) (chondrocytes; [6]): little cytoxicity
water solubility (in words) (Water solubility): limited water solubility

C[C@@H]1CN(Cc2ccc(F)cc2)[C@@H](C)CN1C(=O)c1cc2c(C(=O)C(=O)N(C)C)cn(C)c2cc1Cl [SCIO-469 (SD 469)]
IC50 [1, 3]: 107 nM
IC50 [1, 4]: 18 nM
maximum inhibition of PGE2 [1]: 62%
IC50 [1, 8]: 107 nM
IC50 [2, 5]: 18 nM
IC50 ([2]; Bos taurus, Chondrocyte, Table 3B, unit inferred, read-out: NO Inhibition, Pellet Assay, IC50): 107 nM
IC50 [2, 9]: 18 nM
increase of LDH level (chondrocytes; bovine, 100000 nM): 121%

CC(C(=O)O)c1ccc(C(=O)c2cccs2)cc1 (centres unmarked) [Suprofen, reference compound]
IC50 [1, 4]: 0.812 nM
inhibition at 10 µM ([2]; Bos taurus, Chondrocyte): 20%

COc1ccc(-n2nc(CCC(=O)N(C)O)cc2-c2ccc(Cl)cc2)cc1 [Tepoxalin, reference compound]
IC50 [1, 4]: 3280 nM
inhibition at 10 µM ([2]; Bos taurus, Chondrocyte): 50%

Cc1ccc(C(=O)c2ccc(CC(=O)O)n2C)cc1 [Tolmetin, reference compound]
IC50 [1, 4]: 673 nM
NO Inhibition, Pellet Assay (in words) ([2]; Table 3B): No effect

Reference: patent US20090162351A1, “Transdiscal administration of inhibitors of p38 MAP kinase” (DePuy Spine, Inc., priority 2007, published 2009)
